Assay results reported in patent US20060057696A1, “Sugar chain synthases” (priority 2002, published 2006).
Marks after values point to notes of the source that are not given here.

Experiments:
Format in all cases: biochemical
[1] = target: T1, PA-mST8Sia VI (mouse ST8Sia VI) (Mus musculus, UniProt Q8K4T1); assay: Sialyltransferase activity of PA-mST8Sia VI toward acceptor substrates; conditions: for Relative rate (%) Mouse ST8SiaVI: incorporation with Fetuin taken as 100, substrate 0.5 mg/ml glycolipids, 1 mg/ml glycoproteins, monosaccharides and oligosaccharides
T1 construct: amino acids 26-398 in the case of mouse ST8Sia VI; signal peptide of mouse immunoglobulin IgM (N); made in house; host or cells: COS-7 cells, transient expression of pcDSA-mST8Sia VI; protein recovered from medium on IgG-Sepharose
T1 sequence (Q8K4T1 26-398): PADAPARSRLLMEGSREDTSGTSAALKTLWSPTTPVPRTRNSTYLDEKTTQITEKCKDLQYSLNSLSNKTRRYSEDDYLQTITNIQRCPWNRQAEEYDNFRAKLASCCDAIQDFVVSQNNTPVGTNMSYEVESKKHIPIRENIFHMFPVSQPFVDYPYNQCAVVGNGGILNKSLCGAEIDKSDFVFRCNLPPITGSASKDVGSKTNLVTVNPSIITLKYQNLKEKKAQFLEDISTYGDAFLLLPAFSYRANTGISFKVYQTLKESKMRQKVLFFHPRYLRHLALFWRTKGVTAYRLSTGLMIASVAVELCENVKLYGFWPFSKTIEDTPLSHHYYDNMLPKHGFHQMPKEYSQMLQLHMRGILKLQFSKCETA
Procedure: (§1) Using each expression vector and lipofectamine (Invitrogen), transient expression was carried out in COS-7 cells (Kojima, N. et al. (1995) FEBS Lett. 360, 1-4). The proteins of the present invention secreted from the cells into which each expression vector had been introduced were named as PA-mST8Sia VI (mouse) and PA-hST8Sia VI (human). PA-mST8Sia VI and PA-hST8Sia VI were adsorbed to IgG-Sepharose (Amersham Pharmacia Biotech), and were then recovered from medium. Sialyltransferase activity was measured as follows according to the method of Lee et al. (Lee, Y.-C. et al. (1999) J. Biol. Chem. 274, 11958-11967). A reaction solution (10 μl) containing 50 mM MES buffer (pH 6.0), 1 mM MgCl2, 1 mM CaCl2, 0.5% Triton CF-54, 100 μM CMP-[^14C]-NeuAc, a glycoconjugate (which was added at 0.5 mg/ml in the case of glycolipids, and at 1 mg/ml in the case of glycoproteins or oligosaccharides), and a PA-mST8Sia VI or PA-hST8Sia VI suspension, was incubated at 37° C. for 3 to 20 hours. Thereafter, in the case of glycolipids, the reaction product was purified with a C-18 column (Sep-Pak Vac 100 mg; Waters) and the purified product was used as a sample, and in the case of oligosaccharides or glycoproteins, the reaction product was directly used as a sample. Thus, the obtained samples were subjected to analysis. In the case of oligosaccharides or glycolipids, the sample was spotted on a silica gel 60 HPTLC plate (Merck), and was then developed with a developing solvent consisting of ethanol:pyridine:n-butanol:water:acetic acid=100:10:10:30:3 (for oligosaccharides), a developing solvent consisting of 1-propanol:ammonia water:water=6:1:2.5 (for oligosaccharides), or a developing solvent consisting of chloroform:methanol: 0.02% CaCl2=55:45:10 (for glycolipids). In the case of glycoproteins, analysis was carried out by SDS-polyacrylamide gel electrophoresis. The obtained radioactivities were visualized with a BAS2000 radio image analyzer (Fuji Film) and then quantified.

[2] = target: T2, PA-hST8Sia VI (human ST8Sia VI) (Homo sapiens, UniProt P61647, L267F); assay: Sialyltransferase activity of PA-hST8Sia VI toward acceptor substrates; conditions: incorporation with Fetuin taken as 100, substrate 0.5 mg/ml glycolipids, 1 mg/ml glycoproteins, monosaccharides and oligosaccharides
T2 construct: amino acids 68-398 in the case of human ST8Sia VI; signal peptide of mouse immunoglobulin IgM (N); made in house; host or cells: COS-7 cells, transient expression of pcDSA-hST8Sia VI; protein recovered from medium on IgG-Sepharose
T2 sequence (P61647 68-398 L267F): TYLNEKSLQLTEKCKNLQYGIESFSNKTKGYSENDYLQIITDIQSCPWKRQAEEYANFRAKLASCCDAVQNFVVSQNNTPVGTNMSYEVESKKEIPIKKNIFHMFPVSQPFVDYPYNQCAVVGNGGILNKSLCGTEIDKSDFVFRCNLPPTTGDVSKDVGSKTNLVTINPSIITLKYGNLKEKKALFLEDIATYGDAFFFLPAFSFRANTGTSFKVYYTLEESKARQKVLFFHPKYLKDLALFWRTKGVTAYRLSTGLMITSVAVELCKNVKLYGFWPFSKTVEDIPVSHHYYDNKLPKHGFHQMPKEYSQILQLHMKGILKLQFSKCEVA
Procedure: as §1

[3] = target: T3, PA-hST6Gal II (human ST6Gal II) (Homo sapiens, UniProt Q96JF0); assay: Sialyltransferase activity of PA-hST6Gal II toward acceptor substrates; conditions: for Relative rate (%) Human ST6Gal II: PA-hST6Gal II, incorporation with Galβ1,4GlcNAc taken as 100, 0.5 mg/ml glycolipids, 1 mg/ml glycoproteins and oligosaccharides
T3 construct: amino acids 33-529 in the case of human ST6Gal II; signal peptide of mouse immunoglobulin IgM (N); made in house; host or cells: COS-7 cells, transient expression of pcDSA-hST6Gal II; protein recovered from medium on IgG-Sepharose
T3 sequence (Q96JF0 33-529): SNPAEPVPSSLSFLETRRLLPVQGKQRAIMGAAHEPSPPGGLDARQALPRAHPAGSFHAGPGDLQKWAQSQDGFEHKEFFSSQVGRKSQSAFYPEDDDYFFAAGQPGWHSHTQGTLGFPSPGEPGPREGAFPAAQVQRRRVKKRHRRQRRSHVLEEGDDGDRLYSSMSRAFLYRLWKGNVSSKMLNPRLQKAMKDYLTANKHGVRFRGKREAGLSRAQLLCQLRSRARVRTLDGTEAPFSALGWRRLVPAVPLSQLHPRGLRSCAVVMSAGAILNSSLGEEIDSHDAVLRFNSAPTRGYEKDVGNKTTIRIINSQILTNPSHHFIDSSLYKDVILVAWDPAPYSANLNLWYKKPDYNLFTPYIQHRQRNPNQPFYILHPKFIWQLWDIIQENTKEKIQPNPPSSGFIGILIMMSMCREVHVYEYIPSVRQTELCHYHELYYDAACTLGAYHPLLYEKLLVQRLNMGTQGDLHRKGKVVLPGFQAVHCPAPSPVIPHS
Procedure: (§2) Using each expression vector and lipofectamine (Invitrogen), transient expression was carried out in COS-7 cells (Kojima, N. et al. (1995) FEBS Lett. 360, 1-4). The proteins of the present invention secreted from the cells into which each expression vector had been introduced were named as PA-hST6Gal II (human) and PA-mST6Gal II (mouse). PA-hST6Gal II and PA-mST6Gal II were adsorbed to IgG-Sepharose (Amersham Pharmacia Biotech), and were then recovered from medium. Sialyltransferase activity was measured as follows according to the method of Lee et al. (Lee, Y.-C. et al. (1999) J Biol. Chem. 274, 11958-11967). A reaction mixture (10 μl) containing 50 mM MES buffer (pH 6.0), 1 mM MgCl2, 1 mM CaCl2, 0.5% Triton CF-54, 100 μM CMP-[^14C]-NeuAc, a substrate sugar chain (which was added at 0.5 mg/ml in the case of glycolipids, and at 1 mg/ml in the case of glycoproteins or oligosaccharides), and a PA-hST6Gal II or PA-mST6Gal II suspension, was incubated at 37° C. for 3 to 20 hours. Thereafter, in the case of glycolipids, the reaction product was purified with a C-18 column (Sep-Pak Vac 100 mg; Waters) and the purified product was used as a sample. In the case of oligosaccharides or glycoproteins, the reaction product was directly used as a sample. Thus, the obtained sample was subjected to analysis. In the case of oligosaccharides or glycolipids, the sample was spotted on a silica gel 60 HPTLC plate (Merck), and it was then developed with a developing solvent consisting of 1-propanol:ammonia water:water=6:1:2.5 (for oligosaccharides), or a developing solvent consisting of chloroform:methanol: 0.02% CaCl2=55:45:10 (for glycolipids). In the case of glycoproteins, analysis was carried out by SDS-polyacrylamide gel electrophoresis. The obtained radioactivities were visualized with a BAS2000 radio image analyzer (Fuji Film) and then quantified.

human ST6Gal I = target: T4, human ST6Gal I (Homo sapiens, UniProt P15907); assay: Sialyltransferase activity of human ST6Gal I toward acceptor substrates (comparison); conditions: for Relative rate (%) Human ST6Gal I: incorporation with Galβ1,4GlcNAc taken as 100, 0.5 mg/ml glycolipids, 1 mg/ml glycoproteins and oligosaccharides
T4 sequence (P15907 1-406): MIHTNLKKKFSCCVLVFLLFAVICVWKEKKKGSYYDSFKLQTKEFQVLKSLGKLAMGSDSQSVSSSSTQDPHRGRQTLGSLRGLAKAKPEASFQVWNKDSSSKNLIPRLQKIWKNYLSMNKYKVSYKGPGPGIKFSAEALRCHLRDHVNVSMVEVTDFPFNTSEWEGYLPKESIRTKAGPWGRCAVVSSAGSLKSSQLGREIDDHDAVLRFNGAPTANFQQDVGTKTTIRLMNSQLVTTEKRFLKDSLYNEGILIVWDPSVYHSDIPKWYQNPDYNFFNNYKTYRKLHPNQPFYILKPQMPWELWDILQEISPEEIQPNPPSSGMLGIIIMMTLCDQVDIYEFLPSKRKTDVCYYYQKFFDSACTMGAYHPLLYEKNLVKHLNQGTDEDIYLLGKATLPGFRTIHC
Procedure: as §2
In contrast, there were no glycolipids, which could be substrates of both the enzymes, as far as the inventors have examined. The activity of human ST6Gal I on oligosaccharides was also examined for comparison. […] (FIG. 10).

[4] = target: T5, PA-mST6Gal II (mouse ST6Gal II) (Mus musculus, UniProt Q76K27, R48S); assay: Sialyltransferase activity of PA-mST6Gal II toward acceptor substrates; conditions: for Relative rate (%) Mouse ST6Gal II: PA-mST6Gal II, incorporation with Galβ1,4GlcNAc taken as 100, 0.5 mg/ml glycolipids, 1 mg/ml glycoproteins and oligosaccharides
T5 construct: amino acids 31-524 in the case of mouse ST6Gal II; signal peptide of mouse immunoglobulin IgM (N); made in house; host or cells: COS-7 cells, transient expression of pcDSA-mST6Gal II; protein recovered from medium on IgG-Sepharose
T5 sequence (Q76K27 31-524 R48S): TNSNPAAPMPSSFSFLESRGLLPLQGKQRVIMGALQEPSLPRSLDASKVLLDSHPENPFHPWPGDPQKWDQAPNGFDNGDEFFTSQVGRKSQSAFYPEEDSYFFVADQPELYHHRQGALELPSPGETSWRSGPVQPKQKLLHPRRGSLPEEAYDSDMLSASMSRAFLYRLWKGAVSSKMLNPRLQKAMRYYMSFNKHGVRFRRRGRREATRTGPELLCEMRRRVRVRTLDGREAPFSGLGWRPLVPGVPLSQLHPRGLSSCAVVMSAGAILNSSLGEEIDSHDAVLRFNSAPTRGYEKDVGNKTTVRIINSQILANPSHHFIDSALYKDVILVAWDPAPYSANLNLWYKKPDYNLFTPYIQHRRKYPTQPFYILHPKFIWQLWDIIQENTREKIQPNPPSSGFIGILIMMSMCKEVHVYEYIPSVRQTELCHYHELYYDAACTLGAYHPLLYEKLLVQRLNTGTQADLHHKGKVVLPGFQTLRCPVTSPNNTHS
Procedure: as §2

| Relative rate (%) Mouse ST8SiaVI [1] | Relative rate (%) Human ST8Sia VI [2] | Relative rate (%) Human ST6Gal II [3] | Relative rate (%) Human ST6Gal I (human ST6Gal I) | Relative rate (%) Mouse ST6Gal II [4] | Compound | further results |
| --- | --- | --- | --- | --- | --- | --- |
| 629% | 69.9% | – | – | – | CC(=O)N[C@H]1[C@H]([C@H](O)[C@H](O)CO)O[C@@](O[C@H]2[C@@H](O)[C@@H](CO)O[C@@H](O[C@H]3[C@H](O)[C@@H](O)C(O)O[C@@H]3CO)[C@@H]2O)(C(=O)O)C[C@@H]1O (stereo partly shown) [3′-Sialyllactose, NeuAcα2,3Galβ1,4Glc] | – |
| 91.5% | 10.7% | – | – | – | CC(=O)NC1C(O)CC(OCC2OC(OC3C(CO)OC(O)C(O)C3O)C(O)C(O)C2O)(C(=O)O)OC1C(O)C(O)CO (stereo not shown) [6′-Sialyllactose, NeuAcα2,6Galβ1,4Glc] | – |
| – | – | 0% | 0% | 0% | CC(=O)N[C@H]1C(O)O[C@H](CO)[C@H](O)[C@@H]1O[C@@H]1O[C@H](CO)[C@H](O)[C@H](O)[C@H]1O (stereo partly shown) [Type III, Galβ1,3GalNAc] | – |
| – | – | 0% | 0% | 0% | Galβ1,3GalNAcβ1,4Galβ1,4Glcβ1-Cer [GA1] | – |
| – | – | 0% | 4.2% | 0% | Galβ1,3GlcNAc [Type I] | – |
| – | – | 0% | 31.1% | 0% | Galβ1,3GlcNAcβ1,3Galβ1,4Glc [Lacto-N-tetraose] | activity of human ST6Gal I on the substrate (in words) (human ST6Gal I): showed activity |
| – | – | – | 100*** % | 100* % | Galβ1,4GlcNAc [Type II] | incorporation obtained with Galβ1,4GlcNAc ([3]; Human ST6Gal II, the value set as 100): **, 1.03 pmol/h/ml medium.; incorporation obtained with Galβ1,4GlcNAc (human ST6Gal I; Human ST6Gal I, the value set as 100): ***, 8.14 pmol/h/ml medium.; incorporation obtained with Galβ1,4GlcNAc ([4]; Mouse ST6Gal II, the value set as 100): *, 2.74 pmol/h/ml medium. |
| – | – | 0% | 0.3% | 0% | Galβ1,4GlcNAcβ1,3Galβ1,4Glcβ1-Cer [Paragloboside] | – |
| 6.0% | 1.8% | – | – | – | NeuAcα2,3Galβ1,3GalNAcβ1,4(NeuAca2,3)Galβ1,4Glcβ1-Cer [GD1a] | activity of PA-mST8Sia VI on the substrate (in words) [1]: showed activity |
| 1.1% | 2.2% | – | – | – | NeuAcα2,8Galβ1,3GalNAcβ1,4(NeuAcα2,8NeuAcα2,3)Galβ1,4Glcβ1-Cer [GT1b] | activity of PA-mST8Sia VI on the substrate (in words) [1]: showed activity |
